What was measured:
[1] = Crystal; DTA
[2] = refractive index (Na D-line) (dimensionless); conditions: 101.33 kPa, Liquid, ellipsometry
[3] = refractive index (other wavelength) (dimensionless); conditions: 101 kPa, Liquid, Wavelength=632.8 nm, ellipsometry
[4] = refractive index (other wavelength) (dimensionless); xn = mol fraction of the nth substance listed; conditions: Liquid, ellipsometry

[Cl-].[Cl-].[Cl-].[Gd+3] [gadolinium(III) chloride]
Conditions | Normal melting temperature [°C]
[1] | 602

refractive index
Conditions | 923 K | 973 K | 1023 K | 1073 K | 1123 K | 1173 K
[2] | 1.7 | 1.685 | 1.68 | 1.675 | 1.664 | 1.662
[3] | 1.7 | 1.685 | 1.68 | 1.675 | 1.664 | 1.662

[Cl-].[Na+] [sodium chloride] + [Cl-].[Cl-].[Cl-].[Gd+3]
[4], 100 kPa, Wavelength=632.8 nm, x2 = 0
Conditions | refractive index
1083 K | 1.41
1093 K | 1.408
1103 K | 1.407
1113 K | 1.406
1123 K | 1.405
1133 K | 1.404
1153 K | 1.402
1173 K | 1.399

[Cl-].[Cl-].[Cl-].[Gd+3] [gadolinium(III) chloride] + [Cl-].[Cs+]
refractive index, [4], 100 kPa, Wavelength=632.8 nm
Conditions | 923 K | 973 K | 1023 K | 1073 K | 1103 K | 1123 K | 1173 K
x1 = 0.15 | – | – | – | 1.46 | 1.453 | 1.448 | 1.437
x1 = 0.5 | 1.568 | 1.56 | 1.552 | 1.543 | 1.538 | 1.535 | 1.526
x1 = 0.75 | 1.629 | 1.621 | 1.613 | 1.606 | 1.603 | 1.601 | 1.594
x1 = 1 | 1.7 | 1.685 | 1.68 | 1.675 | – | 1.664 | 1.662

[Cl][Sm]([Cl])[Cl] [samarium chloride] + [Cl-].[K+]
refractive index, [4], 100 kPa, Wavelength=632.8 nm
Conditions | 973 K | 1003 K | 1023 K | 1073 K | 1103 K | 1123 K | 1153 K | 1173 K | 1203 K
x1 = 0.25 | – | – | – | 1.478 | 1.47 | 1.466 | – | 1.458 | 1.45
x1 = 0.5 | 1.588 | 1.582 | 1.577 | 1.56 | 1.551 | 1.54 | – | 1.525 | 1.52
x1 = 0.75 | 1.66 | 1.652 | 1.651 | 1.63 | 1.623 | 1.618 | – | 1.605 | 1.601
x1 = 1 | 1.712 | 1.705 | 1.701 | 1.691 | 1.684 | 1.68 | 1.674 | 1.672 | –

[Cl][Ce]([Cl])[Cl] [cerium trichloride] + [Cl-].[Cs+]
refractive index, [4], 100 kPa, Wavelength=632.8 nm
Conditions | x1 = 0.25 | x1 = 0.5 | x1 = 0.75 | x1 = 1
1073 K | 1.495 | 1.553 | 1.627 | –
1103 K | 1.49 | 1.549 | 1.623 | 1.697
1123 K | 1.487 | 1.545 | 1.619 | –
1133 K | – | – | – | 1.691
1153 K | 1.482 | 1.54 | 1.614 | 1.688
1173 K | 1.479 | 1.537 | 1.61 | 1.685
1193 K | – | – | – | 1.681
1203 K | – | 1.532 | – | –
1213 K | – | 1.53 | – | 1.678
1223 K | – | – | 1.601 | –
1233 K | – | – | – | 1.674

[Cl][Ce]([Cl])[Cl] [cerium trichloride]
Conditions | Normal melting temperature [°C]
[1] | 822

[3]
Conditions | refractive index
1103 K | 1.697
1133 K | 1.691
1153 K | 1.688
1173 K | 1.685
1193 K | 1.681
1213 K | 1.678
1233 K | 1.674

[Cl][Nd]([Cl])[Cl] [neodymium(III) chloride]
Conditions | Normal melting temperature [°C]
[1] | 760

[3]
Conditions | refractive index
1053 K | 1.704
1073 K | 1.701
1093 K | 1.698
1113 K | 1.695
1133 K | 1.692
1153 K | 1.689
1173 K | 1.686
1193 K | 1.683
1213 K | 1.68

[Cl-].[Cs+] [cesium chloride] + [Cl][Sm]([Cl])[Cl]
[4], 100 kPa, Wavelength=6328 nm, x2 = 0
Conditions | refractive index
1023 K | 1.439
1033 K | 1.438
1053 K | 1.434
1073 K | 1.43
1093 K | 1.426
1113 K | 1.423
1133 K | 1.419
1153 K | 1.415
1173 K | 1.411

[Cl-].[Na+] [sodium chloride]
[3]
Conditions | refractive index
1083 K | 1.41
1093 K | 1.408
1103 K | 1.407
1113 K | 1.406
1123 K | 1.405
1133 K | 1.404
1153 K | 1.402
1173 K | 1.399

[Cl-].[K+] [potassium chloride] + [Cl][Sm]([Cl])[Cl]
[4], 100 kPa, Wavelength=632.8 nm, x2 = 0
Conditions | refractive index
1073 K | 1.393
1093 K | 1.39
1103 K | 1.388
1113 K | 1.386
1123 K | 1.385
1133 K | 1.383
1153 K | 1.38
1173 K | 1.377
1193 K | 1.374

[Cl-].[Na+] [sodium chloride] + [Cl][Sm]([Cl])[Cl]
[4], 100 kPa, Wavelength=632.8 nm, x2 = 0
Conditions | refractive index
1083 K | 1.41
1093 K | 1.408
1103 K | 1.407
1113 K | 1.406
1123 K | 1.405
1133 K | 1.404
1153 K | 1.402
1173 K | 1.399

[Cl-].[Na+] [sodium chloride] + [Cl][Ce]([Cl])[Cl]
[4], 101 kPa, Wavelength=632.8 nm, x2 = 0
Conditions | refractive index
1083 K | 1.41
1093 K | 1.408
1103 K | 1.407
1113 K | 1.406
1123 K | 1.405
1133 K | 1.404
1153 K | 1.402
1173 K | 1.399

[Cl][Sm]([Cl])[Cl] [samarium chloride] + [Cl-].[Cs+]
refractive index, [4], 100 kPa, Wavelength=6328 nm
Conditions | 973 K | 1003 K | 1023 K | 1073 K | 1103 K | 1123 K | 1153 K | 1173 K | 1203 K
x1 = 0.15 | – | – | 1.468 | 1.464 | 1.458 | 1.448 | – | 1.44 | –
x1 = 0.5 | 1.564 | 1.558 | 1.557 | 1.55 | 1.543 | 1.54 | – | 1.527 | 1.523
x1 = 0.75 | 1.675 | 1.668 | 1.662 | 1.654 | 1.651 | 1.642 | – | 1.64 | 1.635
x1 = 1 | 1.712 | 1.705 | 1.701 | 1.691 | 1.684 | 1.68 | 1.674 | 1.672 | –

[Cl-].[K+] [potassium chloride] + [Cl][Ce]([Cl])[Cl]
[4], 100 kPa, Wavelength=632.8 nm, x2 = 0
Conditions | refractive index
1073 K | 1.393
1093 K | 1.39
1103 K | 1.388
1113 K | 1.386
1123 K | 1.385
1133 K | 1.383
1153 K | 1.38
1173 K | 1.377
1193 K | 1.374
